# Assay results taken from US20060147400A1, “Composition, especially a cosmetic composition, containing at least one alkyl para-hydroxybenzoate and at least one lipophilic amino acid derivative” (L'Oreal, priority 2002, published 2006).
# Test: Solubility of alkyl para-hydroxybenzoates in a solubilizer/solvent (80° C., stirring one hour, dissolution monitored over time)
# Type: physicochemical
# Conditions: comparative; same amount (60% by weight) in water, conventionally used solvent
# Procedure: Protocol: The alkyl para-hydroxybenzoates are weighed out and placed in a hermetic pill bottle. The required amount of lipophilic amino acid derivative (solubilizer) is added. The suspension is brought to 80° C. and stirred. by magnetic stirring for one hour. The dissolution or non-dissolution of the alkyl para-hydroxybenzoate and its change over time are then monitored. The insolubility of the alkyl para-hydroxybenzoate in the solubilizer is characterized macroscopically by a precipitate or just a cloudy solution, and microscopically by the presence of crystals.
structure (smiles),measurement,value
CCCOC(=O)c1ccc(O)cc1 [propyl para-hydroxybenzoate],dissolution or non-dissolution in water,formation of insoluble crystals and a paste
